Data: patent US20140171358A1, “ANTIMICROBIAL COMPOSITIONS COMPRISING DGLA AND NEOMYCIN SULFATE AND METHODS OF USE THEREOF” (Dignity Sciences Limited, priority 2012, published 2014)
Read-outs that look alike come from different tables or passages of the source. Blank lines part the entries; values can stand above or below the molecule they belong to.

Experiments:
Type in all cases: cell-based
P. acnes = experiment: agar dilution method: growth index and MIC on P. acnes (single compounds and combinations); settings: for MIC: Cutibacterium acnes; for growth of P. Acnes with the combination compared with 15-HETrE used alone: in combination with 15-HETrE; for growth of P. Acnes with the combination compared with 15-OHEPA used alone: in combination with 15-OHEPA; for growth of P. Acnes with the combination compared with DGLA used alone: in combination with DGLA
Experimental: Several compounds including fatty acids such as DGLA, 15-OHEPA, and 15-HETrE were tested to determine their capacity to inhibit the growth of P. acnes. In an exemplary method, an agar dilution method was used to determine the minimum inhibitory concentration (MIC) of each tested compound. Briefly, the agar dilution method involved preparing a series of concentrations of each compound (e.g., nicotinamide, benzoyl peroxide, adapalene, metronidazole, DGLA, 15-OHEPA, and 15-HETrE) in a Reinforced Clostridial Agar (RCA) media that facilitates growth of P. acnes under anaerobic conditions. An inoculum of P. acnes was prepared by incubation of P. acnes for approximately seven days at 35-37° C. to achieve a ≧1.0 OD600 inoculum of P. acnes in RCM broth. A portion of this inoculum was then added to the surface of each plate as a 10 μL spot and incubated at 35-37° C. for 72 hours or more. Growth of P. acnes was then observed and compared to control plates in which no compound has been added, and positive inhibition plates prepared with erythromycin. […] The growth of P. acnes in the presence of nicotinamide, benzoyl peroxide, adapalene, metronidazole, DGLA, 15-OHEPA, and 15-HETrE was determined with varying concentrations of the compound (see, Table 2). Next, the MIC was determined as the concentration at which a marked reduction (+) occurs in the appearance of growth on the test plate (as per Clinical and Laboratory Standards Institute M11-A7). The compounds tested singly in Example 1 were tested in combination with one another to determine the capacity of the combination to inhibit the growth of P. acnes. In an exemplary method, the MIC was determined for each of the combination as described in Example 1. Briefly, test combinations included DGLA with nicotinamide, benzoyl peroxide, adapalene, or metronidazole; 15-HETrE with nicotinamide, benzoyl peroxide, adapalene, or metronidazole; and 15-OHEPA with nicotinamide, benzoyl peroxide, adapalene, or metronidazole. The tables below show the growth of P. acnes in the presence of 0.4 or 1.0 mg/mL DGLA with varying concentrations of nicotinamide, benzoyl peroxide, adapalene, or metronidazole (Table 3); the growth of P. acnes in the presence of 0.01 or 0.05 mg/mL 15-HETrE with varying concentrations of nicotinamide, benzoyl peroxide, adapalene, or metronidazole (Table 5); and the growth of P. acnes in the presence of 0.5 or 0.1 mg/mL 15-OHEPA with varying concentrations of nicotinamide, benzoyl peroxide, adapalene, or metronidazole (Table 7).

C. albicans = experiment: paper disc corrected zone of inhibition (CZOI) on Mueller Hinton agar
Experimental: (§1) The compounds tested in Example 1 were tested to determine their capacity to inhibit the growth of a variety of Gram-negative bacteria, Gram-positive bactgeria, fungi and yeast. In an exemplary method, Mueller Hinton agar plates were streaked with 500 μL of a 10^5 colony-forming units/mL culture and allowed to dry for at least one minute. A sterile paper disc (6 mm diameter) was then placed in the middle of each plate using sterile forceps. Twenty microliters of a solution of a known concentration of a test compound in filter-sterilized 95% ethanol were pipetted onto each test plate. Two streaked plates served as positive inhibitory controls and contained 6 mm sterile paper discs with standard tetracycline solutions. Two additional plates served as negative inhibition controls and each contained 6 mm sterile paper discs with 20 μL of filter-sterilized 95% ethanol. Two more plates served as positive growth controls and contained no paper disc or added antibacterial agent. The plates were incubated at 32.5±2° C. for 24±4 hours, after which the corrected zone of inhibition (“CZOI”) was determined as follows: For each plate, the length Y2 and width X2 of the test sample (paper disc) and length Y1 and width X1 of the clear zone were measured (FIG. 1). The CZOI was calculated from these values as shown by the equation below: [formula]

S. aureus = experiment: as above
Experimental: as §1

E. faecalis = experiment: as above
Experimental: as §1

S. epidermidis = experiment: as above
Experimental: as §1

P. aeroginosa = experiment: as above
Experimental: as §1

K. pneumoniae = experiment: as above
Experimental: as §1

C. striatum = experiment: as above
Experimental: as §1

E. coli = experiment: as above
Experimental: as §1

A. brasiliensis = experiment: as above
Experimental: as §1

[1] = read-out: MIC (mg/mL) with 0.01 mg/mL 15-HETrE spike
[2] = read-out: MIC (mg/mL) with 0.05 mg/mL 15-OHEPA spike
[3] = with 0.05 mg/mL 15-HETrE (inhibitory concentration), read-out: MIC (mg/mL) with 0.05 mg/mL 15-HETrE spike
[4] = with 0.1 mg/mL 15-OHEPA (inhibitory concentration), read-out: MIC (mg/mL) with 0.1 mg/mL 15-OHEPA spike
[5] = with 0.4 mg/mL dGLA (Sigma), read-out: MIC (mg/mL) with 0.4 mg/mL dGLA spike
[6] = with 1.0 mg/mL dGLA (Cayman), read-out: MIC (mg/mL) with 1.0 mg/mL dGLA spike
[7] = compound alone, read-out: MIC (mg/mL) as per P-11-0007 or P-11-0008 Addendum A

SMILES: Cc1ncc([N+](=O)[O-])n1CCO [Metronidazole]
MIC (P. acnes; [1]): > 1 mg/mL
MIC (P. acnes; [2]): > 1 mg/mL
MIC (P. acnes; [3]): < 0.2 mg/mL
MIC (P. acnes; [4]): < 0.2 mg/mL
MIC (P. acnes; [5]): > 1 mg/mL
MIC (P. acnes; [6]): > 1 mg/mL
growth of P. Acnes with the combination compared with 15-HETrE used alone (P. acnes): did not reduce the growth of P. Acnes below that of 15-HETrE used alone
growth of P. Acnes with the combination compared with 15-OHEPA used alone (P. acnes): did not reduce the growth of P. Acnes below that of 15 OHEPA used alone
growth of P. Acnes with the combination compared with DGLA used alone (P. acnes): did not reduce the growth of P. Acnes below that of DGLA used alone

SMILES: CCC=CCC(O)C=CC=CCC=CCC=CCCCC(=O)O (stereo not drawn) [15-OHEPA, 15-Hydroxy-eicosa-5,8,11,13,17-pentaenoic acid]
Average CZOI (C. albicans; 0.01 mg/mL): 1 mm
Average CZOI (C. albicans; 0.025 mg/mL): 1.5 mm
Average CZOI (C. albicans; 0.05 mg/mL): 2.5 mm
Average CZOI (C. albicans; 0.075 mg/mL): 2.25 mm
Average CZOI (C. albicans; 0.1 mg/mL): 1 mm
Lowest Concentration With Observed Inhibition (C. albicans; C. albicans): 0.001 mg/mL
Most Effective Concentration Observed (C. albicans; C. albicans): 0.05 mg/mL
Average CZOI (S. aureus; 0.01 mg/mL): 0 mm
Average CZOI (S. aureus; 0.025 mg/mL): 1 mm
Average CZOI (S. aureus; 0.05 mg/mL): 1.25 mm
Average CZOI (S. aureus; 0.075 mg/mL): 2.25 mm
Average CZOI (S. aureus; 0.1 mg/mL): 2 mm
Lowest Concentration With Observed Inhibition (S. aureus; S. aureus): 0.025 mg/mL
Most Effective Concentration Observed (S. aureus; S. aureus): 0.075 mg/mL
Average CZOI (E. faecalis; 0.01 mg/mL): 2.5 mm
Average CZOI (E. faecalis; 0.025 mg/mL): 1.5 mm
Average CZOI (E. faecalis; 0.05 mg/mL): 2.25 mm
Average CZOI (E. faecalis; 0.075 mg/mL): 1.25 mm
Average CZOI (E. faecalis; 0.1 mg/mL): 1.5 mm
Lowest Concentration With Observed Inhibition (E. faecalis; E. faecalis): 0.001 mg/mL
Most Effective Concentration Observed (E. faecalis; E. faecalis): 0.001 mg/mL
Average CZOI (S. epidermidis; 0.01 mg/mL): 1 mm
Average CZOI (S. epidermidis; 0.025 mg/mL): 2 mm
Average CZOI (S. epidermidis; 0.05 mg/mL): 2.25 mm
Average CZOI (S. epidermidis; 0.075 mg/mL): 3 mm
Average CZOI (S. epidermidis; 0.1 mg/mL): 1.25 mm
Lowest Concentration With Observed Inhibition (S. epidermidis; S. epidermidis): 0.001 mg/mL
Most Effective Concentration Observed (S. epidermidis; S. epidermidis): 0.075 mg/mL
Average CZOI (P. aeroginosa; 0.01 mg/mL): 1.25 mm
Average CZOI (P. aeroginosa; 0.025 mg/mL): 1 mm
Average CZOI (P. aeroginosa; 0.05 mg/mL): 1.5 mm
Average CZOI (P. aeroginosa; 0.075 mg/mL): 1.75 mm
Average CZOI (P. aeroginosa; 0.1 mg/mL): 1.5 mm
Lowest Concentration With Observed Inhibition (P. aeroginosa; P. aeroginosa): 0.001 mg/mL
Most Effective Concentration Observed (P. aeroginosa; P. aeroginosa): 0.075 mg/mL
Average CZOI (K. pneumoniae; 0.01 mg/mL): 2.25 mm
Average CZOI (K. pneumoniae; 0.025 mg/mL): 1.5 mm
Average CZOI (K. pneumoniae; 0.05 mg/mL): 1 mm
Average CZOI (K. pneumoniae; 0.075 mg/mL): 1.75 mm
Average CZOI (K. pneumoniae; 0.1 mg/mL): 2.25 mm
Lowest Concentration With Observed Inhibition (K. pneumoniae; K. pneumoniae): 0.001 mg/mL
Most Effective Concentration Observed (K. pneumoniae; K. pneumoniae): 0.001 mg/mL
Average CZOI (C. striatum; 0.01 mg/mL): 3.25 mm
Average CZOI (C. striatum; 0.025 mg/mL): 3 mm
Average CZOI (C. striatum; 0.05 mg/mL): 3.5 mm
Average CZOI (C. striatum; 0.075 mg/mL): 2 mm
Average CZOI (C. striatum; 0.1 mg/mL): 1.5 mm
Lowest Concentration With Observed Inhibition (C. striatum; C. striatum): 0.001 mg/mL
Most Effective Concentration Observed (C. striatum; C. striatum): 0.05 mg/mL
Average CZOI (E. coli; 0.01 mg/mL): 2 mm
Average CZOI (E. coli; 0.025 mg/mL): 1.25 mm
Average CZOI (E. coli; 0.05 mg/mL): 1.25 mm
Average CZOI (E. coli; 0.075 mg/mL): 1.75 mm
Average CZOI (E. coli; 0.1 mg/mL): 1.5 mm
Lowest Concentration With Observed Inhibition (E. coli; E. coli): 0.001 mg/mL
Most Effective Concentration Observed (E. coli; E. coli): 0.001 mg/mL
Average CZOI (A. brasiliensis; 0.01 mg/mL): 0.25 mm
Average CZOI (A. brasiliensis; 0.025 mg/mL): 1.75 mm
Average CZOI (A. brasiliensis; 0.05 mg/mL): 2 mm
Average CZOI (A. brasiliensis; 0.075 mg/mL): 3.75 mm
Average CZOI (A. brasiliensis; 0.1 mg/mL): 2.75 mm
Lowest Concentration With Observed Inhibition (A. brasiliensis; A. brasiliensis): 0.001 mg/mL
Most Effective Concentration Observed (A. brasiliensis; A. brasiliensis): 0.075 mg/mL
effect on growth of P. acnes on its own (P. acnes; 0.05 mg/mL): no effect on its own
MIC (P. acnes; [7]): 0.05 to 0.075 mg/mL

Now from value to molecule, other results behind:

MIC (P. acnes; [1]): 10 to 15 mg/mL
MIC (P. acnes; [2]): 10 to 15 mg/mL
MIC (P. acnes; [3]): < 1 mg/mL
MIC (P. acnes; [4]): < 1 mg/mL
MIC (P. acnes; [5]): 10 to 15 mg/mL
MIC (P. acnes; [6]): 10 to 15 mg/mL
SMILES: NC(=O)c1cccnc1 [Nicotinamide]
growth of P. Acnes with the combination compared with 15-HETrE used alone (P. acnes): did not reduce the growth of P. Acnes below that of 15-HETrE used alone
growth of P. Acnes with the combination compared with 15-OHEPA used alone (P. acnes): did not reduce the growth of P. Acnes below that of 15 OHEPA used alone
growth of P. Acnes with the combination compared with DGLA used alone (P. acnes): did not reduce the growth of P. Acnes below that of DGLA used alone

MIC (P. acnes; [7]): 0.6 to 0.8 mg/mL
MIC (P. acnes; [1]): 0.6 to 0.8 mg/mL
MIC (P. acnes; [2]): 0.4 to 0.6 mg/mL
MIC (P. acnes; [3]): < 0.2 mg/mL
MIC (P. acnes; [4]): < 0.2 mg/mL
MIC (P. acnes; [5]): 0.2 to 0.4 mg/mL
MIC (P. acnes; [6]): 0.2 to 0.4 mg/mL
SMILES: O=C(OOC(=O)c1ccccc1)c1ccccc1 [Benzoyl Peroxide]
growth of P. Acnes with the combination compared with 15-HETrE used alone (P. acnes): did not reduce the growth of P. Acnes below that of 15-HETrE used alone

MIC (P. acnes; [1]): 0.6 to 0.7 mg/mL
MIC (P. acnes; [2]): > 0.8 mg/mL
MIC (P. acnes; [3]): < 0.2 mg/mL
MIC (P. acnes; [4]): < 0.2 mg/mL
MIC (P. acnes; [5]): > 0.6 mg/mL
MIC (P. acnes; [6]): > 0.6 mg/mL
SMILES: COc1ccc(-c2ccc3cc(C(=O)O)ccc3c2)cc1C12CC3CC(CC(C3)C1)C2 [Adapalene]
growth of P. Acnes with the combination compared with 15-OHEPA used alone (P. acnes): did not reduce the growth of P. Acnes below that of 15 OHEPA used alone
growth of P. Acnes with the combination compared with DGLA used alone (P. acnes): did not reduce the growth of P. Acnes below that of DGLA used alone
